Reference: patent publication US6855730B2, “3-methylidenyl-2-indolinone modulators of protein kinase” (Sugen, Inc., priority 1998, dated 2005)

Tests used:
human flk-1 = target: T1, human flk-1 (Homo sapiens, UniProt P35968); assay: Biochemical FLK-1 assay (flk-1 autophosphorylation ELISA); settings: read-out: bio FLK1 IC50 (μM) % if inhibition at 100
T1 construct: host or cells: Flk-1/NIH cells (NIH fibroblasts)
Outline: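 Flk-1 from lysates of NIH fibroblasts over-expressing human flk-1 (50 μg/well) was captured on anti-flk-1 antibody-coated plates, then autophosphorylated with test compounds and ATP (0.3 mM working solution) for 60 min at room temperature before EDTA stop. Phosphotyrosine was detected with biotinylated 4G10, avidin-biotin peroxidase and TMB at 450 nm.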

flkGST = target: T2, flkGST (Homo sapiens, UniProt P35968); assay: bio flkGST assay; assay type: biochemical
T2 construct: GST

[1] = target: Myc-GyrB-FGFR fusion protein (Homo sapiens, UniProt P11362); assay: Biochemical FGFR assay (ELISA); settings: read-out: bio fgfR1 IC50
Chain of Myc-GyrB-FGFR fusion protein (P11362 478-767 limits assumed): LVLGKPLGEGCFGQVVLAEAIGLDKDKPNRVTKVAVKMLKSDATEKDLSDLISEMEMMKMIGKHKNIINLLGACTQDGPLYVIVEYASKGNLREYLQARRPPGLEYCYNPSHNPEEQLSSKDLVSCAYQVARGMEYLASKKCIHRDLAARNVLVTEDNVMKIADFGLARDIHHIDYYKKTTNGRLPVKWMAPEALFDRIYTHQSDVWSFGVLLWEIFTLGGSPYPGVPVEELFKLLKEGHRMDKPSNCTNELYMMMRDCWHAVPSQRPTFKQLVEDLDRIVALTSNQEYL

T1 sequence (P35968 20-1356): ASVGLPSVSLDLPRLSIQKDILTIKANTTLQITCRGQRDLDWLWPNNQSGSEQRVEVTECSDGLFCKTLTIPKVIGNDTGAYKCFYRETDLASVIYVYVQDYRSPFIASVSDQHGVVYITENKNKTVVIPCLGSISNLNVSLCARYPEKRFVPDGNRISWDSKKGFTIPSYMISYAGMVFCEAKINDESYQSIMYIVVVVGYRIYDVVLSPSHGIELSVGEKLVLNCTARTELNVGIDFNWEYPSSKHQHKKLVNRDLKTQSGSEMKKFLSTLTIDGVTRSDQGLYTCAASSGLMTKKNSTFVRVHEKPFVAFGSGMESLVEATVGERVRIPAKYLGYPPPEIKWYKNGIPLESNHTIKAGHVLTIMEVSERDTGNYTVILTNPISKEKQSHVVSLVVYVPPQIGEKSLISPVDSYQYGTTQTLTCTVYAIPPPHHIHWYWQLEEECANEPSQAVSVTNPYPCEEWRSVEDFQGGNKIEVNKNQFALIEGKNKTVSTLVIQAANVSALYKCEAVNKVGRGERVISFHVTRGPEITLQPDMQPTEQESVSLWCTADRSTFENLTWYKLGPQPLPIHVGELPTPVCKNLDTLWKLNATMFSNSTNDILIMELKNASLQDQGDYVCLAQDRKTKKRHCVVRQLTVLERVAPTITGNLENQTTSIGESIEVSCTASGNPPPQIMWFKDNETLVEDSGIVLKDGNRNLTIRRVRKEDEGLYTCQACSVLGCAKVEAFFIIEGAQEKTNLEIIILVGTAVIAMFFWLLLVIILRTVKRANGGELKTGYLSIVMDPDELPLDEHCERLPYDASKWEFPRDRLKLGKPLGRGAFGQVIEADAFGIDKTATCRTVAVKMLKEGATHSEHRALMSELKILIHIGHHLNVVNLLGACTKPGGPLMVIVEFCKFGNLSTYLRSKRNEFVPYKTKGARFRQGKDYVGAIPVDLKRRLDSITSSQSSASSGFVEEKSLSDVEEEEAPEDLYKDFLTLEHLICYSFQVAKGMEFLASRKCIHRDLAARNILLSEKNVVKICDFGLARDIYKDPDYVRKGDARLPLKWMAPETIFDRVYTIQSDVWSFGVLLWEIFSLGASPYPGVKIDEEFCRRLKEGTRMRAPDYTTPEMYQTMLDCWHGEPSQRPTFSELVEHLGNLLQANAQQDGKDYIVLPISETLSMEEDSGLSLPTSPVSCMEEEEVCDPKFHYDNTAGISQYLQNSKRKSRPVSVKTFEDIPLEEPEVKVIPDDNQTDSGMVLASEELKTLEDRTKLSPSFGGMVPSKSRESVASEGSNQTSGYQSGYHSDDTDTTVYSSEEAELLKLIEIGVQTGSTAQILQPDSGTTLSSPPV
T2 sequence (P35968 786-1356 limits assumed): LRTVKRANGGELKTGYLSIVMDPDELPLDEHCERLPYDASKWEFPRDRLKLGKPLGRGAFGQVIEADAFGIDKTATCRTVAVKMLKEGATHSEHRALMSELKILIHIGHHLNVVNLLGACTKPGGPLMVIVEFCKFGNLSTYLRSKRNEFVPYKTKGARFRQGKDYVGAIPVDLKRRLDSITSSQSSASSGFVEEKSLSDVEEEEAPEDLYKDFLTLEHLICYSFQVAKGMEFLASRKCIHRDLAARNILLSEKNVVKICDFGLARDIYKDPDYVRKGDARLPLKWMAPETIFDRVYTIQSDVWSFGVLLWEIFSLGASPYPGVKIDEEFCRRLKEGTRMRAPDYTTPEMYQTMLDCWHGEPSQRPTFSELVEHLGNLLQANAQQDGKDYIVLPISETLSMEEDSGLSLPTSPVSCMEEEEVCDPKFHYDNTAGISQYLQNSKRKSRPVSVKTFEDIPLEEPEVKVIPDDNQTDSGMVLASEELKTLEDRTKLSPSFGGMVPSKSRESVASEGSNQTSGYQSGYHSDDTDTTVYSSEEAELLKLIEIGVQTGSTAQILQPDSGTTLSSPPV

Row | Structure (SMILES) | IC50 (human flk-1) [µM] | IC50 (flkGST) [nM] | IC50 [1] [nM]
1 | Cc1ccc2c(c1)/C(=C/c1[nH]c3c(c1CCC(=O)O)CCCC3)C(=O)N2 [Example 194, 3-[2-(5-Methyl-2-oxo-1,2-dihydroindol-3-ylidenemethyl)-4,5,6,7-tetrahydro-1H-indol-3-yl]-propionic acid] | 0.001 | 6670 | 40
2 | O=C(O)CCc1c(/C=C2\C(=O)Nc3ccc(Cl)cc32)[nH]c2c1CCCC2 [Example 191, 3-[2-(5-Chloro-2-oxo-1,2-dihydroindol-3-ylidenemethyl)-4,5,6,7-tetrahydro-1H-indol-3-yl]-propionic acid] | 0.02 | 40 | 40
3 | O=C(O)CCc1c(/C=C2\C(=O)Nc3cc(-c4ccccc4)ccc32)[nH]c2c1CCCC2 [Example 206, 3-[2-(2-oxo-6-phenyl-1,2-dihydroindol-3-ylidenemethyl)-4,5,6,7-tetrahydro-1H-indol-3-yl]-propionic acid] | 6.08 | 60 | 1180
4 | COc1ccc(-c2ccc3c(c2)NC(=O)/C3=C\c2[nH]c3c(c2CCC(=O)O)CCCC3)cc1 [Example 205, 3-{2-[6-(4-Methoxyphenyl)-2-oxo-1,2-dihydro-indol-3-ylidenemethyl]-4,5,6,7-tetrahydro-1H-indol-3-yl}-propionic acid] | 0.52 | 440 | 2020
5 | O=C(O)CCc1c(/C=C2\C(=O)Nc3ncccc32)[nH]c2c1CCCC2 [Example 203, 3-[2-(2-Oxo-1,2-dihydropyrrolo[2,3-b]pyridin-3-ylidenemethyl)-4,5,6,7-tetrahydro-1H-indol-3-yl]-propionic acid] | 0.14 | – | 2270
6 | Cc1cccc2c1/C(=C/c1[nH]c3c(c1CCC(=O)O)CCCC3)C(=O)N2 [Example 193, 3-[2-(4-Methyl-2-oxo-1,2-dihydroindol-3-ylidenemethyl)-4,5,6,7-tetrahydro-1H-indol-3-yl]-propionic acid] | 0.02 | 3600 | 20
7 | O=C(O)CCc1c(/C=C2\C(=O)Nc3ccc(Br)cc32)[nH]c2c1CCCC2 [Example 192, 3-[2-(5-Bromo-2-oxo-1,2-dihydroindol-3-ylidenemethyl)-4,5,6,7-tetrahydro-1H-indol-3yl]-propionic acid] | 0.03 | 30 | 1810
8 | CC(C)NS(=O)(=O)c1ccc2c(c1)C(=Cc1[nH]c3c(c1CCC(=O)O)CCCC3)C(=O)N2 [Example 208, 3-[2-(5-Isopropylaminosulfonyl-2-oxo-1,2-dihydroindol-3-ylidenemethyl)-4,5,6,7-tetrahydro-1H-indol-3-yl]-propionic acid] | < 0.78 | 380 | –
9 | O=C1Nc2ccc(N=Cc3cc4ccccc4[nH]3)cc2C1=Cc1cc2ccccc2[nH]1 [Example 171, 3-(1H-indol-2-ylmethylene)-5-[(1H-indol-2-ylmethylene)-amino]-1,3-dihydroindol-2-one] | 20.4 | – | > 20000
10 | O=C(O)CCc1c(/C=C2\C(=O)Nc3ccccc32)[nH]c2c1CCCC2 [Example 190, 3-[2-(2-Oxo-1,2-dihydro-indol-3-ylidenemethyl)-4,5,6,7-tetrahydro-1H-indol-3-yl]-propionic acid] | 0.06 | 87 | 5850

The next lines start with the values.

Row | IC50 (human flk-1) [µM] | IC50 (flkGST) [nM] | IC50 [1] [nM] | Structure (SMILES)
11 | 0.03 | 4350 | 20 | O=C(O)CCc1c(/C=C2\C(=O)Nc3cc(Cl)ccc32)[nH]c2c1CCCC2 [Example 195, 3-[2-(6-Chloro-2-oxo-1,2-dihydroindol-3-ylidenemethyl)-4,5,6,7-tetrahydro-1H-indol-3-yl]-propionic acid]
12 | 28.2 | 570 | 1220 | COc1cccc(-c2ccc3c(c2)NC(=O)/C3=C\c2[nH]cc(C)c2CCC(=O)O)c1 [Example 223, 3-{2-[6-(3-Methoxyphenyl)-2-oxo-1,2-dihydro-indol-3-ylidenemethyl]-4-methyl-1H-pyrrol-3-yl}-propionic acid]
13 | 1 | 670 | 4240 | CCOc1cccc(-c2ccc3c(c2)NC(=O)/C3=C\c2[nH]cc(C)c2CCC(=O)O)c1 [Example 224, 3-{2-[6-(3-Ethoxyphenyl)-2-oxo-1,2-dihydro-indol-3-ylidenemethyl]-4-methyl-1H-pyrrol-3-yl}-propionic acid]
14 | 0.89 | 410 | 50 | COc1ccc2c(c1)NC(=O)/C2=C\c1[nH]c2c(c1CCC(=O)O)CCCC2 [Example 196, 3-[2-(6-Methoxy-2-oxo-1,2-dihydroindol-3-ylidenemethyl)-4,5,6,7-tetrahydro-1H-indol-3-yl]-propionic acid]
15 | 0.36 | 70 | 590 | COc1cccc(-c2ccc3c(c2)NC(=O)/C3=C\c2[nH]c3c(c2CCC(=O)O)CCCC3)c1 [Example 204, 3-{2-[6-(3-Methoxyphenyl)-2-oxo-1,2-dihydro-indol-3-ylidenemethyl]-4,5,6,7-tetrahydro-1H-indol-3-yl}-propionic acid]
16 | 50.6 | – | 30200 | O=C(O)CCc1ccccc1/C=C1/C(=O)Nc2ccccc21 [Example 214, 3-[2-(2-Oxo-1,2-dihydroindol-3-ylidenemethyl)-phenyl]-propionic acid]
